Experimental data as given in publication PMC7641330 (2020).

How the values were obtained:
[1] = tested on: Wildtype Tte riboswitch, biotinylated (SPR) (RNA, riboswitch) CUGGGUCGCAGUAACCCCAGUUAACAAAACAAG; assay: SPR, 1:1 kinetic fit; conditions: 100 mM NaCl, 3 mM MgCl2; 10 mM Na-HEPES pH 7.4; immobilised RNA
[2] = tested on: A14(2AP) Tte riboswitch (RNA, riboswitch, 2-aminopurine at 14) CUGGGUCGCAGUAACCCCAGUUAACAAAACAAG; assay: ITC; conditions: 100 mM NaCl, 4 mM MgCl2; 50 mM Na-HEPES pH 7.0, 25 °C
[3] = tested on: A13(2AP) Tte riboswitch (RNA, riboswitch, 2-aminopurine at 13) CUGGGUCGCAGUAACCCCAGUUAACAAAACAAG; assay: ITC; conditions: 100 mM NaCl, 4 mM MgCl2; 50 mM Na-HEPES pH 7.0, 25 °C
[4] = tested on: A13(2AP) Tte riboswitch (RNA, riboswitch, 2-aminopurine at 13) CUGGGUCGCAGUAACCCCAGUUAACAAAACAAG; assay: 2-aminopurine fluorescence titration, one-site fit; conditions: 100 mM NaCl, 2 mM MgCl2; 50 mM Na-HEPES pH 7.0; 100 nM RNA
[5] = tested on: A10(2AP) Tte riboswitch (RNA, riboswitch, 2-aminopurine at 10) CUGGGUCGCAGUAACCCCAGUUAACAAAACAAG; assay: ITC; conditions: 100 mM NaCl, 4 mM MgCl2; 50 mM Na-HEPES pH 7.0, 25 °C
[6] = tested on: A10(2AP) Tte riboswitch (RNA, riboswitch, 2-aminopurine at 10) CUGGGUCGCAGUAACCCCAGUUAACAAAACAAG; assay: 2-aminopurine fluorescence titration, one-site fit; conditions: 100 mM NaCl, 2 mM MgCl2; 50 mM Na-HEPES pH 7.0; 100 nM RNA
[7] = tested on: A32(2AP) Tte riboswitch (RNA, riboswitch, 2-aminopurine at 32) CUGGGUCGCAGUAACCCCAGUUAACAAAACAAG; assay: ITC; conditions: 100 mM NaCl, 4 mM MgCl2; 50 mM Na-HEPES pH 7.0, 25 °C
[8] = tested on: A32(2AP) Tte riboswitch (RNA, riboswitch, 2-aminopurine at 32) CUGGGUCGCAGUAACCCCAGUUAACAAAACAAG; assay: 2-aminopurine fluorescence titration, one-site fit; conditions: 100 mM NaCl, 2 mM MgCl2; 50 mM Na-HEPES pH 7.0; 100 nM RNA
[9] = tested on: Wildtype Tte preQ1-I riboswitch 33-mer (RNA, riboswitch) CUGGGUCGCAGUAACCCCAGUUAACAAAACAAG; assay: ITC; conditions: 100 mM NaCl, 4 mM MgCl2; 50 mM Na-HEPES pH 7.0, 25 °C
[10] = tested on: A14(2AP) Tte riboswitch (RNA, riboswitch, 2-aminopurine at 14) CUGGGUCGCAGUAACCCCAGUUAACAAAACAAG; assay: 2-aminopurine fluorescence titration, one-site fit; conditions: 100 mM NaCl, 2 mM MgCl2; 50 mM Na-HEPES pH 7.0; 100 nM RNA

## NCc1c[nH]c2nc(N)[nH]c(=O)c12
[1]
  KD: 1.84 ± 0.08 × 10^-9 M
[2]
  KD: 19.3 ± 0.8 nM
[3]
  KD: 21.6 ± 1.1 nM
[4]
  apparent KD: 25.7 ± 2.4 nM
[5]
  KD: 12.6 ± 2.0 nM
[6]
  apparent KD: 13.9 ± 0.7 nM
[7]
  KD: 10.5 ± 2.4 nM
[8]
  apparent KD: 12.3 ± 1.4 nM
[9]
  KD: 8.1 ± 0.9 nM
[10]
  apparent KD: 34.2 ± 1.6 nM
